Results on eleven compounds are retold here after patent EP0031926A2, “Radioimmunological set for the determination of progesterone and its use, and radioimmunoassay method for the determination of progesterone” (HOECHST AKTIENGESELLSCHAFT, priority 1979, dated 1981).

This assay deals with gegen Progesteron-11α-bernsteinsäurehalbester-ovalbumin erzeugten Antiserum. The experiment in a line: Cross-reactivity of steroids in the radioimmunoassay for progesterone (competitive binding, 125I-labelled progesterone-3 tracer, charcoal separation). Details: species or system Kaninchen. As to conditions: relative to Progesteron = 100; acid buffer; heterologous system (11α-protein conjugate antiserum, 3-iodinated tracer). From the text:
Die vorliegende Erfindung stellt ein Radioimmunobesteck und eine Bestimmungsmethode für Progesteron zur Verfügung, welche dadurch gekennzeichnet ist, daß man in saurem Medium, vorzugsweise einem sauren Puffer, eine Flüssigkeitsprobe mit einer bekannten Menge von gegen ein Progesteron/Proteinkonjugat erzeugten Antikörpern, wobei das Protein über eine Brückengruppe in 11-Stellung, im allgemeinen 11α-Stellung, an das Progesteron gebunden ist, und mit einer bekannten Menge eines Progesteronderivats,das in 3-Stellung über eine Brücke mit einem Rest substituiert ist, welcher ein oder mehrere Atome eines Jodradioisotops trägt, inkubiert, . das in dem entstandenen Antikörper /Antigenkomplex gebundene Steroid von der freien Steroidkomnonente abtrennt und deren Radioaktivität oder die des Antikörper/Antigenkomplexes mißt. Im allgemeinen wird das Antiserum zuletzt zugesetzt, und der Indikator wird vorzugsweise zum Standard bzw. zur Probe gegeben.
Wie oben erwähnt ist die eigentliche Bestimmung eine herkömmliche radioimmunologische Bestimmung mit Bindungskonkurrenz, d.h. sie ist abhängig von der Konkurrenz zwischen unmarkiertem Progesteron und einem radiojodierten Progesteronderivat um die Bindungsstellen eines progesteronspezifischen Antikörpers. Der an den Antikörper gebundene Anteil an jodiertem Progesteron ist der Menge des vorhandenen unmarkierten Progesterons umgekehrt proportional. Dieser Anteil wird dadurch gemessen, daß man die gebundenen und freien Komponenten trennt, im allgemeinen durch Adsorption der letzteren, und die Radioaktivität der einen oder der anderen mißt.
Die bevorzugte Reagenzienkombination für die erfindungsgemäße Bestimmungsmethode besteht aus einem gegen Progesteron-11α-bernsteinsäurehalbester-ovalbumin erzeugten Antiserum und Progesteron-3-(0-carboxymethyl)-oxim-[^125J]-jodhistamin. J]-jodhistamin.
Die Bestimmung wird auf herkömmliche Weise durchgeführt, beispielsweise erstellt man einen Satz Röhrchen, die jeweils ein Aliquot an 3-jodiertem Indikator und entweder eine bekannte Menge einer Standardprogestercnlösung in einem geeigneten, von Steroid befreiten Verdünnungsmittel oder eine unbekannte Probe enthalten. Vorzugsweise gibt man den Indikator zum Standard oder zur Probe. Ein Aliquot des Antiserums wird in jedes Röhrchen gegeben, dessen Inhalt gut vermischt und stehengelassen wird, vorzugsweise bei 0 - 4°C. Die Bestimmung läßt sich jedoch auch bei höheren Temperaturen, z.B. Raumtemperatur oder 37°C, durchführen. Nach Ablauf einer gewissen Zeit, vorzugsweise 21/2 - 5 Stunden, wird jedem Röhrchen ein Aliquot eines Trennmittels zugesetzt. Das Trennmittel ist beispielsweise ein zweiter Antikörper oder (NH4)2S04, jedoch vorzugsweise Aktivkohle. Man läßt dem Trennmittel genügend Zeit, um das freie Steroid zu binden, trennt es vom Rest des Röhrcheninhalts, im Falle von Aktivkohle vorzugsweise durch Zentrifugieren, und bestimmt die Radioaktivität der festen oder flüssigen Phase. Im Falle von Aktivkohle als Adsorptionsmittel wird vorzugsweise die feste Phase, d.h. die Radioaktivität des freien (nichtantikörpergebundenen) jodierten Indikators gemessen.Andernfalls kann man eine Probe der überstehenden flüssigen Phase nehmen und zählen. Man erstellt eine Standardkurve, und die in der Probe vorliegende Menge Progesteron kann aus der Kurve interpoliert werden.
Die Kreuzreaktivität verschiedener Steroide bei der erfindungsgemäßen Bestimmungsmethode ist unten angegeben.
For `C[C@H](O)[C@H]1CC[C@H]2[C@@H]3CC[C@@H]4C[C@H](O)CC[C@]4(C)[C@H]3CC[C@]12C` [5ß-Pregnan-3α, 20α-diol], the “% Kreuzreaktivität” value is given as 0,7%.
As for `CC(=O)[C@H]1CC[C@H]2[C@@H]3CC[C@@H]4C[C@H](O)CC[C@]4(C)[C@H]3CC[C@]12C` [5ß-Pregnan-3α-01-20-on], the “% Kreuzreaktivität” value is reported as 8,0%.
As for `CC(=O)[C@H]1CC[C@H]2[C@@H]3CC[C@H]4CC(=O)CC[C@]4(C)[C@H]3CC[C@]12C` [5α-Pregnan-3,20-dion], the “% Kreuzreaktivität” value is reported as 6,0%.
For the compound `CC(=O)[C@@]1(O)CC[C@H]2[C@@H]3CCC4=CC(=O)CC[C@]4(C)[C@H]3CC[C@@]21C` [17α-Hydroxyprogesteron], the “% Kreuzreaktivität” value is recorded as 1,3%.
Turning to `C[C@H](O)[C@H]1CC[C@H]2[C@@H]3CCC4=CC(=O)CC[C@]4(C)[C@H]3CC[C@]12C` [20α-Hydroxyprogesteron], the “% Kreuzreaktivität” value is recorded as 0,25%.
As to `C[C@]12C[C@H](O)[C@H]3[C@@H](CCC4=CC(=O)CC[C@@]43C)[C@@H]1CC[C@@H]2C(=O)CO` [Corticosteron], the “% Kreuzreaktivität” value is listed as 2,7%.
For the compound `C[C@]12CC[C@H]3[C@@H](CCC4=CC(=O)CC[C@@]43C)[C@@H]1CC[C@@H]2C(=O)CO` [Desoxycorticosteron], the “% Kreuzreaktivität” value is listed as 0,01%.
For `CC(=O)[C@H]1CC[C@H]2[C@@H]3CC=C4C[C@@H](O)CC[C@]4(C)[C@H]3CC[C@]12C` [Pregnenolon] the value was 10,5%.
Consider `CC(=O)[C@H]1CC[C@H]2[C@@H]3CC=C4C[C@@H](O[C@@H]5O[C@H](C(=O)O)[C@@H](O)[C@H](O)[C@H]5O)CC[C@]4(C)[C@H]3CC[C@]12C` [Pregnenolonglucuronid], for which the “% Kreuzreaktivität” value is reported as 10,0%.
The figure for `CC(=O)[C@H]1CC[C@H]2[C@@H]3CC=C4C[C@@H](OS(=O)(=O)O)CC[C@]4(C)[C@H]3CC[C@]12C` [Pregnenolonsulfat] is 0,4%; for `CC(=O)[C@H]1CC[C@H]2[C@@H]3CCC4=CC(=O)CC[C@]4(C)[C@H]3CC[C@]12C` [Progesteron] it is 100%.
